Experimental data from US20250230147A1, “LACTAMS AS CBL-B INHIBITORS” (Genentech, Inc., priority 2021, published 2025).

Experiments:
[1] = molecular target: Cbl-b (Homo sapiens (Human), UniProt Q13191); assay: Cbl-b LCK Ub TR-FRET assay (Cbl-b Lck HTRF); format: biochemical
Method in brief: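 Biotin-Cbl-b preincubated with compound (10-point 3-fold series) 60 min, then His-LCK with 1 mM ATP (2× mixture) added for 90 min at room temperature. Ubiquitination detected by TR-FRET using HA-ubiquitin/UBE2D2 adduct, anti-HA-D2 and streptavidin-Eu; IC50 normalised to no-LCK and DMSO controls.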

[2] = molecular target: c-Cbl (Homo sapiens (Human), UniProt P22681); assay: C-Cbl LCK Ub TR-FRET assay (c-cbl Lck HTRF); format: biochemical; settings: for (fold-selectivity): C-cbl Lck HTRF IC50 relative to Cbl-b Lck HTRF IC50
Method in brief: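 After the ubiquitination reaction, detection mixture was added and plates incubated 20 min at room temperature before reading. IC50 values were calculated with wells lacking LCK as the low control and DMSO as the high control.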

[3] = Liver microsomes metabolic stability, rat; format: in vitro ADME; settings: 1 μM compound, 0.5 mg/mL microsomal protein
Experimental: (§1) Metabolic stability of test compounds was evaluated in pooled rat, mouse, dog, and cynomolgus monkey liver microsomes (BD Biosciences, San Jose, CA). The incubation conditions were as follows: 1 μM of the tested compound, 1 mM NADPH, 0.5 mg/mL microsomal protein in 0.1 M potassium phosphate buffer (pH 7.4). Following a 5-minute pre-incubation period, the enzymatic reactions were initiated by the addition of NADPH and test compound to the microsomes diluted in phosphate buffered saline. The mixtures were incubated at 37° C. for 0, 20, 40, and 60 min.
(§2) Compound concentrations were assessed by LC-MS/MS. Intrinsic clearance based upon microsomal stability data was determined using a substrate depletion method and scaled to hepatic clearance using the well-stirred model (Obach, R. S.; Baxter, J. G.; Liston, T. E.; Silber, B. M.; Jones, B. C.; Macintyre, F.; Rance, D. J.; Wastall, P., “The Prediction of Human Pharmacokinetic Parameters from Preclinical and in vitro Metabolism Data”, J. Pharmacol. Exp. Ther., (1997), 283 (1), 46-58).

[4] = Liver microsomes metabolic stability, mouse; format: in vitro ADME; settings: 1 μM compound, 0.5 mg/mL microsomal protein
Experimental: as §1, §2

[5] = Liver microsomes metabolic stability, dog; format: in vitro ADME; settings: 1 μM compound, 0.5 mg/mL microsomal protein
Experimental: as §1, §2

[6] = test system: rat hepatocytes; assay: Hepatocyte metabolic stability, rat; format: in vitro ADME; settings: 1.0 μM compound, 0.5 million cells/mL
Experimental: (§3) Metabolic stability assays of test compounds were evaluated in cryopreserved pooled rat, mouse, dog, and cynomolgus monkey hepatocytes (CellzDirect; Durham, NC, USA). Membrane integrity of the cells was assessed by trypan blue exclusion. Test compounds (1.0 μM with 0.1% dimethylsulfoxide) were incubated with cells (0.5 million cells/mL) at 37° C. in a 95% air/5% CO2 atmosphere for 0, 20, 40, or 60 minutes. Concentrations of test compounds in hepatocyte incubations were determined by LC/MS/MS. Intrinsic clearance was determined using a substrate depletion method and scaled to hepatic clearance using the well-stirred model as described above for the liver microsomes metabolic stability assays.

[7] = test system: mouse hepatocytes; assay: Hepatocyte metabolic stability, mouse; format: in vitro ADME; settings: 1.0 μM compound, 0.5 million cells/mL
Experimental: as §3

[8] = In vivo pharmacokinetics, mouse; set-up: species or system CD-1 mice; settings: male, CD-1, plasma; for bioavailability: PO 1-5 mg/kg, read-out: Oral Bioavailability (F %); for clearance: single intravenous bolus 0.2-1 mg/kg, read-out: Mouse CL
Experimental: The pharmacokinetics of test compounds were evaluated following a single intravenous bolus (IV) of solution at a dose of 0.2-1 mg/kg and oral administration (PO) of solution/suspension at doses of 1-5 mg/kg in male cynomolgus monkey, beagle dogs, Sprague Dawley rats, or CD-1 mice using a parallel study design. Blood samples for the IV dose group were collected prior to administration (predose) and at 0.033, 0.083, 0.25, 0.5, 1, 3, 6, 9 and 24 hours post dose. Blood samples for PO dose groups were collected prior to administration (predose) and at 0.083, 0.25, 0.5, 1, 3, 6, 9 and 24 hours post dose. For the IV group, urine was collected from each animal at predose and from 0-6 and 6-24 hours post dose. The vehicle used for IV dose groups was a combination of PEG400 with citrate buffer (pH 5.0) or PEG400/Cremphor with DMSO/H2O, and for PO groups was MCT.
Plasma and urine concentrations were quantitated at Genentech Inc. using a non-validated LC/MS/MS method. The lower limit of quantitation (LLOQ) of the plasma and urine assays was 0.005 μM. PK parameters were determined by non-compartmental methods using WinNonlin (version 5.2, Pharsight Corporation, Mountain View, CA).

c-Cbl, sequence (P22681 47-435): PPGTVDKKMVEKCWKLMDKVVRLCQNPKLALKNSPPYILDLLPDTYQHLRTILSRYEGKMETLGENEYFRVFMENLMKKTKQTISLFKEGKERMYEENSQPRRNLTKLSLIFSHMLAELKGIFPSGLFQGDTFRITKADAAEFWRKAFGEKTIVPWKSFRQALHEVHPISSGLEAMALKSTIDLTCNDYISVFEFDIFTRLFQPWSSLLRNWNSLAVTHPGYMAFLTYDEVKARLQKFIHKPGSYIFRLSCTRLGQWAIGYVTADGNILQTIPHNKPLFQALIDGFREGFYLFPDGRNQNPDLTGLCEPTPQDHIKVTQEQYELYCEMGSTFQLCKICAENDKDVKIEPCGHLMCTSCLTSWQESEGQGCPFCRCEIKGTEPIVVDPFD
Cbl-b, sequence (Q13191 40-426): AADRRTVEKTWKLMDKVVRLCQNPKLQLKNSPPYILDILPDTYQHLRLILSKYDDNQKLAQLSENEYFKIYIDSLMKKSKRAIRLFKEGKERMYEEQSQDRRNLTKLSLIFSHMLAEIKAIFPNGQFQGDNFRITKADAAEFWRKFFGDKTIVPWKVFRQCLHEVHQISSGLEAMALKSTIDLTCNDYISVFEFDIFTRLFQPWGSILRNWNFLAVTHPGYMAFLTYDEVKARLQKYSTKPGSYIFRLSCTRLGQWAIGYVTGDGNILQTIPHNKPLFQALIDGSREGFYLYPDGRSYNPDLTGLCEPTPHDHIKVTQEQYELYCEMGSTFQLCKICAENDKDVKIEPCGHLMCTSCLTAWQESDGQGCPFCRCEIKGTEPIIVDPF

SMILES	IC50 [1] [nM]	IC50 [2] [nM]	(fold-selectivity) [2]	Liver microsomes Pred. CLhep (mL/min/kg) Rat/Mouse/Dog [3] [mL/min/kg]	Liver microsomes Pred. CLhep (mL/min/kg) Rat/Mouse/Dog [4] [mL/min/kg]	Liver microsomes Pred. CLhep (mL/min/kg) Rat/Mouse/Dog [5] [mL/min/kg]	Hepatocyte Pred. CLhep (mL/min/kg) Rat/Mouse/Dog [6] [mL/min/kg]	Hepatocyte Pred. CLhep (mL/min/kg) Rat/Mouse/Dog [7] [mL/min/kg]	bioavailability [8] [%]	clearance [8] [mL/min/kg]
Cn1cnnc1[C@H](F)C1(c2cccc(N3Cc4c(cc(CN)cc4C(F)(F)F)C3=O)c2)COC1 [Compound 68, (R)-6-(aminomethyl)-2-(3-(3-(fluoro(4-methyl-4H-1,2,4-triazol-3-yl)methyl)oxetan-3-yl)phenyl)-4-(trifluoromethyl)isoindolin-1-one]	79	110	1.3x	6	14	12	19	37	–	–
Cn1cnnc1[C@H](F)C1(c2cccc(N3Cc4c(cc(CN5CCC5)cc4C(F)(F)F)C3=O)c2)COC1 [Compound 70, (R)-6-(azetidin-1-ylmethyl)-2-(3-(3-(fluoro(4-methyl-4H-1,2,4-triazol-3-yl)methyl)oxetan-3-yl)phenyl)-4-(trifluoromethyl)isoindolin-1-one]	110	210	1.9x	–	–	–	–	–	2	44
CC(C)[C@H]1CN(C)CCN1Cc1cc2c(c(C(F)(F)F)c1)CN(c1cccc(C3([C@@H](F)c4nncn4C)CC(F)(F)C3)c1)C2=O [Compound 189, 2-(3-(3,3-difluoro-1-((R)-fluoro(4-methyl-4H-1,2,4-triazol-3-yl)methyl)cyclobutyl)phenyl)-6-(((S)-2-isopropyl-4-methylpiperazin-1-yl)methyl)-4-(trifluoromethyl)isoindolin-1-one]	12	11	0.95x	–	–	–	–	–	21	34
Cn1cnnc1[C@H](F)C1(c2cccc(N3Cc4c(cc(CN5CC(C)(CO)C5)cc4C(F)(F)F)C3=O)c2)COC1 [Compound 74, (R)-2-(3-(3-(fluoro(4-methyl-4H-1,2,4-triazol-3-yl)methyl)oxetan-3-yl)phenyl)-6((3-(hydroxymethyl)-3-methylazetidin-1-yl)methyl)-4-(trifluoromethyl)isoindolin-1-one]	57	120	2.2x	15	37	19	11	35	–	–
CC(C)[C@H]1CN(C)CCN1Cc1cc2c(c(C(F)(F)F)c1)CN(c1cccc(C3([C@@H](F)c4nncn4C)COC3)c1)C2=O [Compound 187, 2-(3-(3-((R)-fluoro(4-methyl-4H-1,2,4-triazol-3-yl)methyl)oxetan-3-yl)phenyl)-6-(((S)-2-isopropyl-4-methylpiperazin-1-yl)methyl)-4-(trifluoromethyl)isoindolin-1-one]	11	13	1.1x	–	–	–	–	–	13	42
Cn1cnnc1[C@H](F)C1(c2cccc(N3Cc4c(cc(CN5CC(S(C)(=O)=O)C5)cc4C(F)(F)F)C3=O)c2)COC1 [Compound 163, (R)-2-(3-(3-(fluoro(4-methyl-4H-1,2,4-triazol-3-yl)methyl)oxetan-3-yl)phenyl)-6-((3-(methylsulfonyl)azetidin-1-yl)methyl)-4-(trifluoromethyl)isoindolin-1-one]	130	240	1.9x	–	–	–	–	–	–	–
Cc1cnn(CC2(c3cccc(N4Cc5c(cc(CN6CCN(C)C[C@@H]6C(C)C)cc5C(F)(F)F)C4=O)c3)COC2)n1 [Compound 256, (S)-6-((2-isopropyl-4-methylpiperazin-1-yl)methyl)-2-(3-(3-((4-methyl-2H-1,2,3-triazol-2-yl)methyl)oxetan-3-yl)phenyl)-4-(trifluoromethyl)isoindolin-1-one]	15	13	(0.83x)	–	–	–	–	–	–	–
C[C@@H]1CN(Cc2cc3c(c(C(F)(F)F)c2)CN(c2cccc(C4(Cc5nncn5C)CC(F)(F)C4)c2)C3=O)CCN1C [Compound 220, (R)-2-(3-(3,3-difluoro-1-((4-methyl-4H-1,2,4-triazol-3-yl)methyl)cyclobutyl)phenyl)-6-((3,4-dimethylpiperazin-1-yl)methyl)-4-(trifluoromethyl)isoindolin-1-one]	34	35	1.0x	–	–	–	–	–	–	–
Cn1cnnc1CC1(c2cc(N[C@H]3CC[C@@H](N)CC3)nc(N3Cc4c(cc(CNC5(C)CCC5)cc4C(F)(F)F)C3=O)c2)CCC1 [Compound 306, 2-(6-(((1s,4s)-4-aminocyclohexyl)amino)-4-(1-((4-methyl-4H-1,2,4-triazol-3-yl)methyl)cyclobutyl)pyridin-2-yl)-6-(((1-methylcyclobutyl)amino)methyl)-4-(trifluoromethyl)isoindolin-1-one]	76	89	(1.2x)	–	–	–	–	–	–	–
CC(C)N(C)Cc1cc2c(c(C(F)(F)F)c1)CN(c1cccc(C3(Cc4nncn4C)CC(F)(F)C3)c1)C2=O [Compound 416, 2-(3-(3,3-difluoro-1-((4-methyl-4H-1,2,4-triazol-3-yl)methyl)cyclobutyl)phenyl)-6-((isopropyl(methyl)amino)methyl)-4-(trifluoromethyl)isoindolin-1-one]	92	110	(1.2x)	–	–	–	–	–	–	–
CC(C)[C@H]1CN(C2COC2)CCN1Cc1cc2c(c(C(F)(F)F)c1)CN(c1cccc(C3([C@@H](F)c4nncn4C)COC3)c1)C2=O [Compound 200, 2-(3-(3-((R)-fluoro(4-methyl-4H-1,2,4-triazol-3-yl)methyl)oxetan-3-yl)phenyl)-6-(((S)-2-isopropyl-4-(oxetan-3-yl)piperazin-1-yl)methyl)-4-(trifluoromethyl)isoindolin-1-one]	27	39	1.5x	–	–	–	–	–	–	–
CC(C)[C@H]1CN(C)CCN1Cc1cc2c(c(C(F)(F)F)c1)CN(c1cccc(C3(Cc4nncn4C)CC(F)(F)C3)c1)C2=O [Compound 240, (S)-2-(3-(3,3-difluoro-1-((4-methyl-4H-1,2,4-triazol-3-yl)methyl)-cyclobutyl)phenyl)-6-((2-isopropyl-4-methylpiperazin-1-yl)methyl)-4-(trifluoromethyl)iso-indolin-1-one]	54	39	(0.71x)	–	–	–	–	–	–	–
Cc1cnnn1CC1(c2cccc(N3Cc4c(cc(CNC5(C)CCC5)cc4C(F)F)C3=O)c2)COC1 [Compound 305, 4-(difluoromethyl)-2-(3-(3-((5-methyl-1H-1,2,3-triazol-1-yl)methyl)oxetan-3-yl)phenyl)-6-(((1-methylcyclobutyl)amino)methyl) isoindolin-1-one]	39	49	(1.3x)	–	–	–	–	–	–	–
